The results in this text go back to patent publication US20100036088A1, “Selective poly-N-substituted glycine antibiotics” (priority 2008, published 2010).

The test system of one data set is B. subtilis. Format: cell-based. Conditions: Table 2; cation-adjusted broth. As for the experimental part: (§1) Antibacterial assays. MICs were determined according to CLSI M7-A6 protocols in a 96-well microtiter plate. In test wells, 50 μL bacterial inoculum (5×10^5 CFU/ml) in Mueller-Hinton broth (MHB) was added to 50 μL peptoid solution in MHB (prepared by 1:2 serial dilutions). Positive controls contained 50 μL inoculum and 50 μL MHB without peptoid. […] MIC values reported were reproducible between three independent experimental replicates, each consisting of two parallel trials. Broad-spectrum antimicrobial susceptibility testing was performed against BSL2 pathogens by Nova Biologicals, Inc. (Conroe, Tex.).
(§2) Screening antibacterial assays. MICs were determined in 96-well microtiter plates in accordance with CLSI M7-A6 protocols. Peptoid solutions with 50 μL total volume were prepared using 2:1 serial dilutions. 50 μL of bacteria inoculum (1×10^6 CFU/mL) prepared in cation-adjusted Mueller-Hinton broth (CAMHB) was added to test wells. Control wells contained 100 μL MHB (no growth) or 50 μL inoculums with 50 μL MHB with no peptoid. […] Reported values were reproducible over three experiments, each containing two parallel trials.

A further data set deals with E. coli. Format: cell-based. The conditions noted are these: Table 2; cation-adjusted broth. How it is done: as §1, §2
The subject of data set [1] is Candida albicans (SC5314). Format: cell-based, C. albicans. Conditions: Table 2. As for the experimental part: Additionally, in order to characterize possible antifungal activity, a library of alkylated compounds was tested against C. albicans, a representative fungal strain.
Antifungal Assays. MICs were determined using the broth microdilution assay given by CLSI M27-A2 protocols. Candida albicans (SC5314) was grown on Sabouraud dextrose agar for 24 hours at 30° C. Cells were suspended in 0.145 M saline, and the cell concentration was adjusted to 3×10^6 cells/mL. After adjusting the cell concentration, the suspension was diluted 1:1000 with RPMI 1640 (with L-glutamine and without sodium bicarbonate, Invitrogen) buffered with 0.145 M 3-(N-morpholino) propanesulfonic acid (MOPS). Two-fold serial dilutions of peptoids, peptides, and amphotericin B (Calbiochem) were prepared in RPMI 1640 and mixed with an equal volume of the cell suspension in 96-well plates. The final testing concentrations for the peptoids and peptides were 0.20 to 100 μM, and concentrations for amphotericin B were 0.031 to 16 μM. Growth controls and sterility controls were also included. Plates were incubated for 48 hours at 35° C., and growth of C. albicans was inspected visually to determine the MICs. The MIC for each compound was defined as the lowest concentration with no visible fungal growth. Experiments were performed in duplicate on two separate days.

Data set [2] has as its system NIH 3T3 mouse fibroblast cells. Briefly: MTS assay, metabolic inhibition. The class given is cell-based. Conditions: Table 3; NIH 3T3 cells. Put shortly:
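NIH/3T3 cells seeded at 5,000 per well, grown a day, then exposed to serially diluted peptoids in HBSS together with MTS reagent. Absorbance at 490 nm read after 3 hours at 37° C.; mean of six replicates.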

In data set [3] the test system is both strains of E. faecalis. The class given is cell-based. The conditions noted are these: range over strains. As for the experimental part:
The activities of ampetoids tested against BSL2 Gram-positive strains, however, compared very favorably to those of pexiganan.
Broad-spectrum antibacterial assays. MICs of compounds were determined by microdilution procedure in Mueller-Hinton broth (MHB) in accordance with CLSI M7-A6 protocols in a manner similar to that described for the screen antibacterial assays. Inoculated microtiter plates were incubated at 35° C. for 24 hours prior to the result being recorded. Four ATCC strains that were used as standards are recommended by CLSI: Pseudomonas aeruginosa ATCC 27853, Escherichia coli ATCC 25922, Staphylococcus aureus ATCC 29213 and Enterococcus faecalis ATCC 29212. Other strains from the ATCC collection include Proteus vulgaris ATCC 49132, Proteus mirabilis ATCC 35659, Klebsiella pneumoniae ATCC 33495, Enterobacter aerogenes ATCC 35029 and Serratia marcescens ATCC 13880. S. aureus NRS100 (COL) is a well characterized methicillian-resistant S. aureus (MRSA) strain. The strains S. aureus VAN1 and S. aureus VAN2, vancomycin-resistant MRSA strains that were isolated in Michigan and Pennsylvania, were the first vancomycin-resistant strains clinically isolated. S. aureus NRS119 and S. aureus NRS120 are linezolid-resistant isolates from the Network on Antimicrobial Resistance in S. aureus (NARSA) collection. E. faecalis 99 and E. faecium 106 are vancomycin-resistant enterococcal strains.

SMILES strings stand for the structures. Square brackets hold non-standard residues; d marks the D form. Peptide text beside a SMILES is read from it. Nspe = C[C@H](NCC(=O)O)c1ccccc1; Nlys = NCCCCNCC(=O)O

Take `C[C@@H](c1ccccc1)N(CC(N)=O)C(=O)CN(C(=O)CN(CCCCN)C(=O)CN(C(=O)CN(C(=O)CN(CCCCN)C(=O)CN(C(=O)CN(C(=O)CN(CCCCN)C(=O)CN(C(=O)CN(C(=O)CNCCCCN)[C@@H](C)c1ccccc1)[C@@H](C)c1ccccc1)[C@@H](C)c1ccccc1)[C@@H](C)c1ccccc1)[C@@H](C)c1ccccc1)[C@@H](C)c1ccccc1)[C@@H](C)c1ccccc1` [compound 1, H-(NLys-Nspe-Nspe)4-NH2] (H-[Nlys][Nspe][Nspe][Nlys][Nspe][Nspe][Nlys][Nspe][Nspe][Nlys][Nspe][Nspe]-NH2): in the data set on B. subtilis, the “B. subtilis MIC” value turned out to be 1.6 µM. The “E. coli MIC” value in the data set on E. coli was 6.3 µM. Further, the “C. albicans MIC” value in data set [1] was 6.3 µM. Moreover, in data set [2], the “ID10 (10% metabolic inhibitory concentration)” value worked out at 5.1 and the “ID50 (50% metabolic inhibitory concentration)” value was found to be 1.4. Further, the “MIC against both strains of E. faecalis” value in data set [3] lay in the range of 4 to 8 µg/mL.
